Measured values published in patent US10351586B2, “Cytidine derivative dimers and applications thereof” (CHANGZHOU FANGYUAN PHARMACEUTICAL CO., LTD, priority 2014, dated 2019).
Marks after values point to notes of the source that are not given here.

Legend:
[1] = system: HCT-116 human colon cancer xenografts; experiment: Tumor growth inhibition of HCT-116 human colon cancer xenografts in nude mice; type: in vivo, Balb/c nude mice; conditions: for Relative tumor proliferation rate (T/C %) / Relative tumor volume (RTV) / Tumor growth inhibition rate (TGI %) / Tumor volume of HCT-116 human colon cancer xenografts: single IP injection (QD×1), D1 and D2 400 mg/kg, D3 350 mg/kg, D4 300 mg/kg; for Tumor volume of HCT-116 human colon cancer xenografts: Mean±SEM
Procedure, shortened: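 HCT-116 cells grown in F-12 with 10% FBS, inoculated into nude mice at ~3×10^7 cells/mL. Tumour diameter measured three times weekly, volume as V=3/4π(D/2)^3; activity given as TGI (%) versus control and T/C (%) from relative tumour volume Vt/V0.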

[2] = Body weight / toxicity of a single intraperitoneal injection in HCT-116 colon tumor-bearing nude mice; conditions: D3 350 mg/kg, D4 300 mg/kg; for Average rate of weight change of the animals / Average weight of the animals: single IP injection (QD×1), D1 and D2 400 mg/kg; for Average weight of the animals: Mean±SEM
[3] = D1 400 mg/kg Day 7, D2 400 mg/kg Day 9, D3 350 mg/kg Day 11, D4 300 mg/kg Day 11, single IP

Q: Which “Relative tumor proliferation rate, minimum” value [1, 3] does the source give for `O=C(CCCC(=O)OC[C@H]1O[C@@H](n2ccc(NC(=O)OCc3ccccc3)nc2=O)C(F)(F)[C@@H]1O)OC[C@H]1O[C@@H](n2ccc(NC(=O)OCc3ccccc3)nc2=O)C(F)(F)[C@@H]1O` [Compound D3, 1,5-di-[4-N-(benzyloxycarbonyl)-2′-deoxy-2′,2′-difluoro-cytidine]glutarate] here?
A: 3.41%

Q: And the “Tumor inhibition rate, maximum” value [1, 3]?
A: 98.54%

Q: And the “Relative tumor proliferation rate (T/C %)” value ([1]; Day 0)?
A: 0.00%

Q: And the “Relative tumor volume (RTV)” value ([1]; Day 0)?
A: 1.00

Q: What about the “Tumor growth inhibition rate (TGI %)” value ([1]; Day 0) of the same compound?
A: 0.00%

Q: And the “Tumor volume of HCT-116 human colon cancer xenografts” value ([1]; Day 0)?
A: 38.77 ± 4.33** mm^3

Q: What about the “Relative tumor proliferation rate (T/C %)” value ([1]; Day 1) of the same compound?
A: 60.98%

Q: What about the “Relative tumor volume (RTV)” value ([1]; Day 1) of the same compound?
A: 0.98 ± 0.12

Q: What about the “Tumor growth inhibition rate (TGI %)” value ([1]; Day 1) of the same compound?
A: 79.83%

Q: What about the “Tumor volume of HCT-116 human colon cancer xenografts” value ([1]; Day 1) of the same compound?
A: 36.40 ± 3.98** mm^3

Q: And the “Relative tumor proliferation rate (T/C %)” value ([1]; Day 2)?
A: 49.58%

Q: And the “Relative tumor volume (RTV)” value ([1]; Day 2)?
A: 0.98 ± 0.12

Q: And the “Tumor growth inhibition rate (TGI %)” value ([1]; Day 2)?
A: 83.59%

Q: What about the “Tumor volume of HCT-116 human colon cancer xenografts” value ([1]; Day 2) of the same compound?
A: 36.40 ± 3.98** mm^3

Q: And the “Relative tumor proliferation rate (T/C %)” value ([1]; Day 4)?
A: 23.26%

Q: What about the “Relative tumor volume (RTV)” value ([1]; Day 4) of the same compound?
A: 0.65 ± 0.10

Q: What about the “Tumor growth inhibition rate (TGI %)” value ([1]; Day 4) of the same compound?
A: 92.26%

Q: And the “Tumor volume of HCT-116 human colon cancer xenografts” value ([1]; Day 4)?
A: 23.00 ± 3.08** mm^3

Q: What about the “Relative tumor proliferation rate (T/C %)” value ([1]; Day 7) of the same compound?
A: 6.76%

Q: And the “Relative tumor volume (RTV)” value ([1]; Day 7)?
A: 0.34 ± 0.06

Q: What about the “Tumor growth inhibition rate (TGI %)” value ([1]; Day 7) of the same compound?
A: 97.08%

Q: What about the “Tumor volume of HCT-116 human colon cancer xenografts” value ([1]; Day 7) of the same compound?
A: 12.62 ± 3.10** mm^3

Q: And the “Relative tumor proliferation rate (T/C %)” value ([1]; Day 9)?
A: 4.71%

Q: And the “Relative tumor volume (RTV)” value ([1]; Day 9)?
A: 0.32 ± 0.05

Q: And the “Tumor growth inhibition rate (TGI %)” value ([1]; Day 9)?
A: 97.86%

Q: And the “Tumor volume of HCT-116 human colon cancer xenografts” value ([1]; Day 9)?
A: 12.62 ± 3.10** mm^3

Q: And the “Relative tumor proliferation rate (T/C %)” value ([1]; Day 11)?
A: 3.41%

Q: What about the “Relative tumor volume (RTV)” value ([1]; Day 11) of the same compound?
A: 0.37 ± 0.09

Q: What about the “Tumor growth inhibition rate (TGI %)” value ([1]; Day 11) of the same compound?
A: 98.54%

Q: And the “Tumor volume of HCT-116 human colon cancer xenografts” value ([1]; Day 11)?
A: 14.28 ± 3.69** mm^3

Q: What about the “Relative tumor proliferation rate (T/C %)” value ([1]; Day 14) of the same compound?
A: 5.78%

Q: What about the “Relative tumor volume (RTV)” value ([1]; Day 14) of the same compound?
A: 1.00 ± 0.00

Q: What about the “Tumor growth inhibition rate (TGI %)” value ([1]; Day 14) of the same compound?
A: 97.43%

Q: What about the “Tumor volume of HCT-116 human colon cancer xenografts” value ([1]; Day 14) of the same compound?
A: 36.98 ± 4.82** mm^3

Q: What about the “Relative tumor proliferation rate (T/C %)” value ([1]; Day 16) of the same compound?
A: 10.49%

Q: And the “Relative tumor volume (RTV)” value ([1]; Day 16)?
A: 2.17 ± 0.14

Q: And the “Tumor growth inhibition rate (TGI %)” value ([1]; Day 16)?
A: 95.58%

Q: What about the “Tumor volume of HCT-116 human colon cancer xenografts” value ([1]; Day 16) of the same compound?
A: 80.10 ± 11.07** mm^3

Q: And the “Relative tumor proliferation rate (T/C %)” value ([1]; Day 18)?
A: 16.55%

Q: What about the “Relative tumor volume (RTV)” value ([1]; Day 18) of the same compound?
A: 3.16 ± 0.39

Q: And the “Tumor growth inhibition rate (TGI %)” value ([1]; Day 18)?
A: 93.97%

Q: And the “Tumor volume of HCT-116 human colon cancer xenografts” value ([1]; Day 18)?
A: 120.40 ± 23.44** mm^3

Q: And the “Relative tumor proliferation rate (T/C %)” value ([1]; Day 21)?
A: 23.70%

Q: And the “Relative tumor volume (RTV)” value ([1]; Day 21)?
A: 5.55 ± 0.66

Q: What about the “Tumor growth inhibition rate (TGI %)” value ([1]; Day 21) of the same compound?
A: 91.65%

Q: What about the “Tumor volume of HCT-116 human colon cancer xenografts” value ([1]; Day 21) of the same compound?
A: 204.05 ± 36.25 mm^3

Q: What about the “Relative tumor proliferation rate (T/C %)” value ([1]; Day 23) of the same compound?
A: 31.41%

Q: What about the “Relative tumor volume (RTV)” value ([1]; Day 23) of the same compound?
A: 6.21 ± 0.61

Q: And the “Tumor growth inhibition rate (TGI %)” value ([1]; Day 23)?
A: 90.30%

Q: And the “Tumor volume of HCT-116 human colon cancer xenografts” value ([1]; Day 23)?
A: 229.06 ± 36.15 mm^3

Q: What about the “Relative tumor proliferation rate (T/C %)” value ([1]; Day 25) of the same compound?
A: 33.40%

Q: What about the “Relative tumor volume (RTV)” value ([1]; Day 25) of the same compound?
A: 7.22 ± 0.53

Q: What about the “Tumor growth inhibition rate (TGI %)” value ([1]; Day 25) of the same compound?
A: 89.70%

Q: And the “Tumor volume of HCT-116 human colon cancer xenografts” value ([1]; Day 25)?
A: 266.11 ± 39.63 mm^3

Q: And the “Relative tumor proliferation rate (T/C %)” value ([1]; Day 28)?
A: 43.93%

Q: And the “Relative tumor volume (RTV)” value ([1]; Day 28)?
A: 9.28 ± 0.73

Q: And the “Tumor growth inhibition rate (TGI %)” value ([1]; Day 28)?
A: 87.09%

Q: And the “Tumor volume of HCT-116 human colon cancer xenografts” value ([1]; Day 28)?
A: 347.17 ± 60.84 mm^3

Q: What about the “Relative tumor proliferation rate (T/C %)” value ([1]; Day 30) of the same compound?
A: 52.09%

Q: What about the “Relative tumor volume (RTV)” value ([1]; Day 30) of the same compound?
A: 12.93 ± 0.90

Q: And the “Tumor growth inhibition rate (TGI %)” value ([1]; Day 30)?
A: 82.93%

Q: What about the “Tumor volume of HCT-116 human colon cancer xenografts” value ([1]; Day 30) of the same compound?
A: 479.01 ± 75.54 mm^3

Q: What about the “Inhibition of growth of HCT-116 human colon cancer xenografts (in words)” value ([1]; single IP injection, 300-400 mg/kg) of the same compound?
A: higher tumor inhibition rates

Q: And the “Average rate of weight change of the animals” value ([2]; Day 0)?
A: 0.00%

Q: What about the “Average weight of the animals” value ([2]; Day 0) of the same compound?
A: 19.95 ± 0.09 g

Q: And the “Average rate of weight change of the animals” value ([2]; Day 1)?
A: −3.59 ± 0.66%

Q: And the “Average weight of the animals” value ([2]; Day 1)?
A: 19.23 ± 0.31 g

Q: What about the “Average rate of weight change of the animals” value ([2]; Day 2) of the same compound?
A: −11.25 ± 0.96 %

Q: And the “Average weight of the animals” value ([2]; Day 2)?
A: 17.70 ± 0.26 g

Q: What about the “Average rate of weight change of the animals” value ([2]; Day 4) of the same compound?
A: −8.10 ± 2.84%

Q: And the “Average weight of the animals” value ([2]; Day 4)?
A: 18.24 ± 0.58 g

Q: What about the “Average rate of weight change of the animals” value ([2]; Day 7) of the same compound?
A: −1.68 ± 2.50%

Q: And the “Average weight of the animals” value ([2]; Day 7)?
A: 19.51 ± 0.48 g

Q: What about the “Average rate of weight change of the animals” value ([2]; Day 9) of the same compound?
A: 4.50 ± 1.93 %

Q: What about the “Average weight of the animals” value ([2]; Day 9) of the same compound?
A: 20.74 ± 0.38 g

Q: And the “Average rate of weight change of the animals” value ([2]; Day 11)?
A: 6.38 ± 1.68 %

Q: What about the “Average weight of the animals” value ([2]; Day 11) of the same compound?
A: 21.12 ± 0.41 g

Q: And the “Average rate of weight change of the animals” value ([2]; Day 14)?
A: 7.12 ± 1.19 %

Q: And the “Average weight of the animals” value ([2]; Day 14)?
A: 21.26 ± 0.21 g

Q: And the “Average rate of weight change of the animals” value ([2]; Day 16)?
A: 10.78 ± 0.88 %

Q: What about the “Average weight of the animals” value ([2]; Day 16) of the same compound?
A: 22.00 ± 0.40 g

Q: And the “Average rate of weight change of the animals” value ([2]; Day 18)?
A: 13.71 ± 0.63 %

Q: What about the “Average weight of the animals” value ([2]; Day 18) of the same compound?
A: 22.58 ± 0.38 g

Q: What about the “Average rate of weight change of the animals” value ([2]; Day 21) of the same compound?
A: 10.72 ± 1.6 %

Q: What about the “Average weight of the animals” value ([2]; Day 21) of the same compound?
A: 21.98 ± 0.41 g

Q: And the “Average rate of weight change of the animals” value ([2]; Day 23)?
A: 13.08 ± 2.31 %

Q: What about the “Average weight of the animals” value ([2]; Day 23) of the same compound?
A: 22.44 ± 0.41 g

Q: And the “Average rate of weight change of the animals” value ([2]; Day 25)?
A: 13.34 ± 2.34 %

Q: And the “Average weight of the animals” value ([2]; Day 25)?
A: 22.50 ± 0.53 g

Q: And the “Average rate of weight change of the animals” value ([2]; Day 28)?
A: 11.44 ± 2.29 %

Q: And the “Average weight of the animals” value ([2]; Day 28)?
A: 22.12 ± 0.48 g

Q: And the “Average rate of weight change of the animals” value ([2]; Day 30)?
A: 15.37 ± 2.93%

Q: And the “Average weight of the animals” value ([2]; Day 30)?
A: 22.90 ± 0.60 g

Q: What about the “Toxicity in tumor-bearing mice (in words)” value ([2]; single IP injection, D2 400 mg/kg, judged from body weight versus control) of the same compound?
A: no toxicity
